The test system of data set [1] is human epithelial cervical carcinoma (HeLa) cells. The settings on record: MTT; cited from earlier work.
The subject of data set [2] is human breast cancer (MCF-7). The settings on record: cited from earlier work.
Data set [3] has as its system human cervical carcinoma (HeLa). The settings on record: cited from earlier work.
The subject of another data set is HCT116 cell line. The settings on record: cited from earlier work.
The test system of another data set is HeLa cell line. The settings on record: cited from earlier work.
The subject of another data set is PC-3 cell line. The settings on record: cited from earlier work.
Data set [4] relates to human lung adenocarcinoma (A549). The settings on record: cited from earlier work.
Data set [5] relates to breast adenocarcinoma (MCF-7). The settings on record: cited from earlier work.
Data set [6] relates to ovarian carcinoma (SKOV3). The settings on record: cited from earlier work.
A further data set has as its system tubulin. The settings on record: tubulin polymerization; cited from earlier work.
Another data set relates to colon carcinoma (HCT116). The settings on record: HCT116, MTT; read-out: LC50 (the source's name); cited from earlier work.
For data set [7], the system named is breast adenocarcinoma (MCF-7). The settings on record: MCF-7, MTT; read-out: LC50 (the source's name); cited from earlier work.
For a further data set, the system named is human lung cancer (A549). The settings on record: cited from earlier work.
Data set [8] has as its system human HCC (HepG2) cell line. The settings on record: cited from earlier work.
Data set [9] has as its system human colon epithelial cells (HT-29). The settings on record: cited from earlier work.
Data set [10] concerns human hepatocellular carcinoma (HCC) cell line (HepG2). The settings on record: HepG2, MTT; cited from earlier work.
In data set [11] the test system is kidney fibroblast (BHK-21) cells. The settings on record: cited from earlier work.
The next data set relates to HCC rats. The settings on record: cited from earlier work.
Data set [12] concerns lung cancer (H-157) cell line. The settings on record: cited from earlier work.
A further data set deals with lung cancer (H157) cells. The settings on record: cited from earlier work.
Data set [13] relates to A549 human lung adenocarcinoma cells. Description: MTT cytotoxicity assay. Format: cell-based. The settings on record: MTT, 24 hours. The protocol:
In order to be used from this stock, the concentrations ranging from 0.12 to 500 µg/mL (with the highest DMSO ratio of 0.1%) were prepared.
A549 human lung adenocarcinoma cells (ATCC® CCL-185™) were grown in RPMI 1640 medium supplemented with 10% fetal bovine serum, 1% penicillin/streptomycin, in an incubator with carbon dioxide, in a culture medium at 37°C at 95% relative humidity.
MTT protocol was applied to determine cell viability. […] At the end of the incubation period, 20 µL of MTT dye (5 mg/mL) was added into each well, and the cells were incubated for an additional 4 hours at 37°C. After this process, MTT dye was removed from the cells, 200 µL of DMSO was added to each well and left to incubate for 10 minutes. Color change was detected at 540 nm in the ELx808-IU Bio-Tek plate reader. Inhibition% values were determined for each concentration of compounds. Inhibitory concentration 50 (IC50) values of the compounds were calculated by drawing a dose-response curve with their concentrations against these values. All experiments were carried out in triplicate. The results were given as mean±standard deviation. Inhibition% = 100−[(ODtest compound−ODblank/ODsolvent control−ODblank)×100] [formula]
Selective index (SI) values were determined using the following formula. SI […] IC50 for NIH/3T3 cell line/IC50 for A549 cell line [formula]
In general terms: Tetrazolium dyes change colour on reduction, which living cells bring about.

The subject of the next data set is A549 cells. Put plainly: FITC Annexin V/PI apoptosis detection by flow cytometry. Format: cell-based, human. The settings on record: at IC50 concentrations. The method, then: The cells incubated with the compounds were centrifuged at 400 × g for 5 minutes in labeled tubes and washed twice with 1xPBS. Then, the cells were suspended in 1×Annexin-V binding solution at 1×10^6 cells/mL and 100 µL of this cell solution was taken and transferred to tubes. The cells were treated with 5 µL Annexin V FITC and 5 µL of propidium iodide (PI) dyes. Then, the cells were kept at room temperature in the dark for 15 minutes to allow the dye to bind. 400 µL of 1×Annexin-V binding cell solution was transferred to flow cytometry tubes and the amount of early and late apoptotic cells was determined relative to the positive control using the BD FACSAria flow cytometer FACSDiva version 6.1.1 software.
On the technique in general: In flow cytometry, cells or beads pass a laser one at a time.

In a further data set the test system is Akt. Description: Akt activity assay (Akt colorimetric in cell ELISA). Format: cell-based, human. The settings on record: 24 hours. The method, then: Briefly, the media was removed from the wells and 100 µL of 4% formaldehyde was added. The plate was incubated for 15 minutes in a fume hood. Formaldehyde was removed and the plate was washed twice with 1X […] solution (TBS) to 100 µL/well. 1X TBS was removed and 100 µL of 1X permeabilization buffer was added to each well and left at room temperature for 15 minutes. After removing the 1X permeabilization buffer, the wells were washed once with 100 µL of 1X TBS. 1X TBS was removed and 100 µL of the quenching solution was added to the wells and left at room temperature for 20 minutes. Then, this solution was removed. The plate was washed once with 1X TBS, 100 µL of blocking buffer was added to the wells and left at room temperature for 30 minutes. At the end of this period, the blocking buffer was removed and 50 µL of primary antibody was added to the wells. The plate was closed with a sealer and incubated overnight at 4°C. The primary antibody was removed and plate wells were washed three times with 100 µL of wash buffer. After removing the wash buffer, 100 µL of diluted horseradish peroxidase (HRP) conjugate was added to the wells. It was incubated for 30 minutes at room temperature. After removing this conjugate, 100 µL of 3,3',5,5'-tetramethylbenzidine (TMB) stop solution was added and absorbance was measured at 450 nm for 30 minutes. The experiment was carried out in triplicate. The values of the blank wells were subtracted from the values of the untreated control and treated cells. The Akt activity% was determined as the relative absorbance of treated versus untreated control cells.
(In general: ELISA stands for enzyme-linked immunosorbent assay.)

For a further data set, the system named is K562 cell line. The settings on record: cited from earlier work.

As usually defined, the EC50 is the concentration giving half of the maximal effect. As a reminder, the IC50 is the point on the concentration scale where inhibition reaches its midpoint. The inhibition is the percentage by which the read-out fell short of the control.

As for `CS(=O)(=O)c1ccc(Cc2n[nH]c(=S)n2N=Cc2c(F)cccc2Cl)cc1` [4-{ [(2-chloro-6-fluorophenyl)methylene]amino}-5-[4-(methylsulfonyl)benzyl]-2,4-dihydro-3H-1,2,4-triazole-3-thione], the EC50 in data set [1] is 25 µM.
In the case of `COc1ccc(-n2nc(-c3nnc(SCCCO)n3-c3ccccc3)cc2-c2ccccc2)cc1` [3-((5-(1-(4-Methoxyphenyl)-5-phenyl-1H-pyrazole-3-yl)-4-phenyl-4H-1,2,4-triazole-3-yl)thio)propane-1-ol], the IC50 in [2] was 2.72 µM; in [3], 2.98 µM.
In the case of `O=c1[nH]cc(F)c(=O)[nH]1` [5-fluorouracil], the results for the IC50 in the data set on HCT116 cell line, with HeLa cell line and in the data set on PC-3 cell line were 68.7 µM, 57.2 µM and 57 µM, respectively.
With `COc1cc(-c2nnc3n2N=C(c2ccc(Br)cc2)CS3)cc(OC)c1OC` [6-(4-bromophenyl)-3-(3,4,5-trimethoxyphenyl)-7H-[1,2,4]triazolo[3,4-b][1,3,4]thiadiazine], the IC50 in data set [4] was 3.15 ± 0.01 µM; in [5], 3.34 ± 0.02 µM; in data set [6], 0.3 ± 0.65 µM; with tubulin, 1.03 µM.
Turning to `COc1cc(C2=Nn3c(nnc3-c3ccccc3)SC2)cc(OC)c1OC` [3-phenyl-6-(3,4,5-trimethoxyphenyl)-7H-[1,2,4]triazolo[3,4-b][1,3,4]thiadiazine], the IC50 in data set [4] is 3.71 ± 0.13 µM; in [5], 0.7 ± 0.04 µM; in data set [6], 4.63 ± 0.09 µM; in the data set on tubulin, 1.61 µM.
Take `COc1cccc2c1C(=O)c1c(O)c3c(c(O)c1C2=O)C[C@@](O)(C(=O)CO)C[C@@H]3O[C@H]1C[C@H](N)[C@H](O)[C@H](C)O1` [doxorubicin]: the half-inhibitory concentration (IC50) was 8.72 µM in [3], 4.52 µM with human lung cancer (A549) and 36.3 µM in data set [8]. Besides, the results for the CC50 (in the data set on colon carcinoma (HCT116); in data set [7]) were 37.7 µM and 26.1 µM, respectively. The EC50 in data set [1] was 2.5 µM.
For the molecule `CS(=O)(=O)c1ccc(Cc2nnc3n2N=C(c2ccccc2)CS3)cc1` [3-(4-(methylsulfonyl)benzyl)-6-phenyl-7H-[1,2,4]triazolo[3,4-b][1,3,4]thiadiazine], the 50% inhibitory concentration (IC50) in [9] is 25 µM.
For `S=c1[nH]nc(OCc2ccccc2)n1N=Cc1c[nH]nc1-c1ccc(Cl)cc1` [4-((3-(4-chlorophenyl)-1H-pyrazole-4-methylene)amino)-5-(benzyloxy)-2,4-dihydro-1,2,4-triazole-3-thione], the IC50 in data set [10] is 0.018 µM.
For the molecule `Cc1ccc(C2=Nn3c(nnc3-c3ccncc3)SC2)cc1` [3-(pyridine-4-yl)-6-(p-tolyl)-7H-[1,2,4]triazolo[3,4-b][1,3,4]thiadiazine], the inhibition in data set [11] is on record as 72.6%.
Regarding `O=C(CNNc1nnc2n1NC=C(c1ccccc1)S2)c1ccccc1` [1-phenyl-2-(2-(7-phenyl-5H-[1,2,4]triazolo[3,4-b][1,3,4]thiadiazine-3-yl)hydrazinyl)ethanone], the IC50 in data set [8] was 19.6 µM. For the same molecule, in the data set with HCC rats, the “inhibition of hepatic tyrosine kinase (HTK) expression” value is given as 45% and the “reduction of vascular endothelial growth factor (VEGF) level” value was 30%. Further, in the data set on HCC rats (compared to the HCC group), the “improvement of liver level of glutathione (GSH)” value is recorded as 99% and the “improvement of liver level of lipid peroxides” value is 62%.
Turning to `CS(=O)(=O)c1ccc(Cc2nnc3n2N=C(c2ccc(-c4ccccc4)cc2)CS3)cc1` [6-(biphenyl-4-yl)-3-(4-(methylsulfonyl)benzyl)-7H-[1,2,4]triazolo[3,4-b][1,3,4]thiadiazine], the IC50 in data set [9] is 12.5 µM.
With `COc1cccc(C2=Nn3c(nnc3-c3ccncc3)SC2)c1` [6-(3-methoxyphenyl)-3-(pyridine-4-yl)-7H-[1,2,4]triazolo[3,4-b][1,3,4]thiadiazine], the inhibition in data set [11] is listed as 73.3%.
For `O=c1oc2ccccc2cc1-c1nnc2n1N=C(c1ccc(-c3ccccc3)cc1)CS2` [3-(6-(Biphenyl-4-yl)-7H-[1,2,4]triazolo[3,4-b][1,3,4]-thiadiazine-3-yl)-2H-chromen-2-one], the IC50 in [12] was 1.01 ± 0.12 µM.
For the molecule `CC[C@]1(O)C[C@H]2CN(CCc3c([nH]c4ccccc34)[C@@](C(=O)OC)(c3cc4c(cc3OC)N(C=O)[C@H]3[C@@](O)(C(=O)OC)[C@H](OC(C)=O)[C@]5(CC)C=CCN6CC[C@]43[C@@H]65)C2)C1` [vincristine], the IC50 (in the data set on lung cancer (H157) cells; in [12]) was 1.03 ± 0.04 µM each time. For the same molecule, the inhibition in data set [11] is 74.5%.
Take `N.N.[Cl][Pt][Cl]` [Cisplatin, reference compound]: in data set [13], the “IC50 values A549 cell line” value was found to be 11.50 ± 0.71 µg/mL. Besides, in the data set with A549 cells, the “Early apoptotic cells %” value is given as 1.8%, the “Late apoptotic cells %” value was determined as 5.8% and the Necrosis % stood at 7.0%. Besides, in the data set on A549 cells (early plus late apoptotic cells), the apoptotic activity stood at 7.6%. In addition, the Inhibition % in the data set with Akt (5.75 µg/mL) was 40.70±1.62%. The same molecule yielded an Inhibition % in the data set with Akt (11.50 µg/mL) of 97.89±0.86%. Further, the “IC50 value (Akt inhibitory effects)” value in the data set with Akt was found to be 7.00 ± 0.50 µg/mL. Further, the IC50 in the data set with K562 cell line is 5.45 ± 0.18 µM. In data set [12], the IC50 is 1.31 ± 0.03 µM.
With `S=C(Nc1ccc(Oc2ccccc2)cc1)Nc1nc(-c2nnc(S)n2-c2ccc(Oc3ccccc3)cc2)cs1` [1-[4-(5-Mercapto-4-(4-phenoxyphenyl-4H-1,2,4-triazole-3-yl)thiazole-2-yl]-3-(4-phenoxyphenyl)thiourea], the CC50 in the data set with colon carcinoma (HCT116) is 23.5 µM; in data set [7], 17.4 µM.
Turning to `Cc1ccc(COc2nn(CN3CCOCC3)c(=S)n2N=Cc2c[nH]nc2-c2ccc(F)cc2)cc1` [4-((3-(4-fluorophenyl)-1H-pyrazole-4-methylene)amino)-2-(morpholinomethyl)-5-(4-methylbenzyloxy)-2,4-dihydro-1,2,4-triazole-3-thione], the IC50 in data set [10] is 0.034 µM.
As for `COc1cc(-c2nnc(SCC(=O)c3ccc(C)cc3)n2N)cc(OC)c1OC` [2-(4-amino-5-(3,4,5-trimethoxyphenyl)-4H-1,2,4-triazole-3-ylthio)-1-(p-tolyl)ethanone], the IC50 in the data set with HCT116 cell line is 0.37 µM; in the data set with HeLa cell line, 2.94 µM; with PC-3 cell line it was 31.3 µM.
As for `Clc1ccc(C2=Nn3c(nnc3-c3cccnc3)SC2)cc1Cl` [6-(3,4-dichlorophenyl)-3-(pyridine-3-yl)-7H-[1,2,4]triazolo[3,4-b][1,3,4]thiadiazine], in the data set with lung cancer (H157) cells, the IC50 is 0.96 ± 0.43 µM.

The values are drawn from patent EP3959200B1, “NEW TRIAZOLE AND TRIAZOLOTHIADIAZINE DERIVATIVES EXERTING CYTOTOXIC AND APOPTOTIC EFFECTS ON A549 CELLS THROUGH AKT INHIBITION” (Anadolu Universitesi, priority 2020, dated 2022).
